According to US10172917B2, “Targeted oesophageal administration of ZN-α2-glycoproteins (ZAG), methods and formulations thereof” (ASTON UNIVERSITY, priority 2012, dated 2019):
“Also recorded” adds a separate entry of the source.

Assays:
[1] = test system: white and brown adipocytes; assay: Glucose uptake ex vivo into white and brown adipocytes of treated ob/ob mice; type: in vivo, mouse; settings: ob/ob mice treated 8 days; absence and presence of insulin (10 nM)
Description: Single cell suspensions of white and brown adipocytes were obtained by incubation of minced epididymal subcutaneous and visceral WAT and BAT for 2 and 2.5 h, respectively, with Krebs-Ringer bicarbonate (KRBB) containing 1.5 mgml^−1 collagenase and 4% BSA under 95% oxygen-5% CO2 at 37° C. Adipocytes were washed twice in 1 ml KRBB, pH7.2, and then incubated for 10 min at room temperature in 0.5 ml KRBB, containing 18.5 MBq 2-[1-^14C] deoxy-D-glucose (2-DG), together with non-radioactive 2-DG, to give a final concentration of 0.1 mM, in the absence or presence of insulin (10 nM). Uptake was terminated by addition of 1 ml ice-cold KRBB without glucose. Adipocytes were washed three times with 1 ml KRBB and lysed by the addition of 0.5 ml 1M NaOH. The uptake of 2-[1-^14C] DG was determined by liquid scintillation counting.

[2] = test system: murine ZAG; assay: Western blotting of murine ZAG in serum and WAT of ob/ob mice; type: in vivo, mouse; settings: ob/ob mice, oral ZAG + propanolol 40 mgkg^−1
Description: Tissues were thawed, washed in PBS and lysed in Phosphosafe™ Extraction reagent for 5 min at room temperature, followed by sonication at 4° C. Cytosolic protein (5-20 ug) formed by centrifugation at 18,000 g for 5 min at 4° C., was resolved on 12% SDS PAGE by electrophoresis at 180V for about 1 h. To determine ZAG in serum 30 μl samples containing 20 μg total protein were electrophoresed as above. Protein was transferred to 0.45 μm nitrocellulose membranes, which had been blocked with 5% (w/v) non-fat dried milk (Marvel) in Tris-buffered saline, pH 7.5, at 4° C. overnight. Membranes were washed for 15 min in 0.1% Tween 20 buffered saline prior to adding the primary antibodies. Both primary and secondary antibodies were used at a dilution of 1:1000. Incubation was for 1 h at room temperature, and development was by ECL. Blots were scanned by a densitometer to quantify differences.

[3] = test system: ob/ob mice; assay: Oral ZAG in drinking water to ob/ob mice: body weight, rectal temperature, urinary glucose excretion; type: in vivo, mouse
Description: Obese (ob/ob) mice (average weight 65 g) were bred in a colony, and were kept in an air conditioned room at 22+2° C. with ad libitum feeding of a rat and mouse breeding diet (Special Diet Services, Witham, UK) and tap water. […] Animals were grouped (n=5) to receive either ZAG/PBS (50 μg day^−1), or PBS in their drinking water, the experiment was repeated three times after a power analysis was performed. […] The ZAG was replaced every 48 h. […] The dose of ZAG was chosen to be the same as that previously administered i.v. (1), so that a direct comparison could be made, between the two routes. Body weight, food and water intake, urinary glucose excretion, and body temperature, determined by the use of a rectal thermometer (RS Components, Northants, UK), were measured daily. A glucose tolerance test was performed on day 3. Animals were fasted for 12 h, followed by oral administration of glucose (1 gkg^−1 in a volume of 100 μl by gavage). Blood samples were removed from the tail vein at 15, 30, 60 and 120 min and used for the measurement of glucose. Urinary glucose was measured by collecting 0.5 ml urine and testing glucose concentration using a Boots glucose monitor. After 8 days of treatment the animals were terminated by cervical dislocation, tissues were removed and rapidly frozen in liquid nitrogen, and maintained at −80° C. Future work would be to repeat this work in diet-induced animals as alternative to a model with gene alteration, although previous studies have shown the ob/ob mouse to be a good indicator of potential human treatments. Animal studies were conducted under Home Office Licence according to the UKCCCR Guidelines for the care and use of laboratory animals.

[4] = test system: ob/ob mice; assay: Serum metabolite and insulin levels in ob/ob mice after ZAG administration; type: in vivo, mouse; settings: ob/ob mice, oral ZAG + propanolol
Excerpt: FCS (foetal calf serum) was from Biosera (Sussex, UK), while DMEM (Dulbecco's modified Eagles Medium) was from PAA (Somerset, UK) and Freestyle medium was purchased from Invitrogen (Paisley, UK). Hybond A nitrocellulose membranes and peroxidise—conjugated rabbit anti-mouse antibody were from GE Healthcare (Bucks, UK), while enhanced chemiluminescene (ECL) development kits were purchased from Thermo Scientific (Northumberland, UK). Mouse monoclonal antibodies to full-length human and mouse ZAG were from Santa Cruz Biotechnology (Santa Cruz, Calif. A mouse insulin ELISA kit was purchased from DRG (Marburg, Germany) and glucose measurements in both urine and plasma were made using a Boots (Nottingham, UK) glucose kit. L-[U-^14C] tyrosine (sp.act 16.7 GBqmmol^−1) was purchased from Perkin Elmer Ltd, (Cambridge, UK), while 2-[1-^14C] deoxy-D-glucose (sp.act 1.85 GBqmmol^−1) was from American Radiolabeled Chemicals (Cardiff, UK).
Obese (ob/ob) mice (average weight 65 g) were bred in a colony, and were kept in an air conditioned room at 22+2° C. with ad libitum feeding of a rat and mouse breeding diet (Special Diet Services, Witham, UK) and tap water. […] Animals were grouped (n=5) to receive either ZAG/PBS (50 μg day^−1), or PBS in their drinking water, the experiment was repeated three times after a power analysis was performed. […] The ZAG was replaced every 48 h. One group of mice receiving ZAG were also administered propanolol (40 mgkg^−1, p.o.) daily. The dose of ZAG was chosen to be the same as that previously administered i.v. (1), so that a direct comparison could be made, between the two routes. Body weight, food and water intake, urinary glucose excretion, and body temperature, determined by the use of a rectal thermometer (RS Components, Northants, UK), were measured daily. A glucose tolerance test was performed on day 3. Animals were fasted for 12 h, followed by oral administration of glucose (1 gkg^−1 in a volume of 100 μl by gavage). Blood samples were removed from the tail vein at 15, 30, 60 and 120 min and used for the measurement of glucose. Urinary glucose was measured by collecting 0.5 ml urine and testing glucose concentration using a Boots glucose monitor. After 8 days of treatment the animals were terminated by cervical dislocation, tissues were removed and rapidly frozen in liquid nitrogen, and maintained at −80° C. Future work would be to repeat this work in diet-induced animals as alternative to a model with gene alteration, although previous studies have shown the ob/ob mouse to be a good indicator of potential human treatments. Animal studies were conducted under Home Office Licence according to the UKCCCR Guidelines for the care and use of laboratory animals.

[5] = test system: ob/ob mice; assay: Oral glucose tolerance test in ob/ob mice after 3 days of oral ZAG; type: in vivo, mouse; settings: oral ZAG + propanolol 40 mgkg^−1, day 3
Description: Animals were grouped (n=5) to receive either ZAG/PBS (50 μg day^−1), or PBS in their drinking water, the experiment was repeated three times after a power analysis was performed. […] The ZAG was replaced every 48 h. One group of mice receiving ZAG were also administered propanolol (40 mgkg^−1, p.o.) daily. The dose of ZAG was chosen to be the same as that previously administered i.v. (1), so that a direct comparison could be made, between the two routes. Body weight, food and water intake, urinary glucose excretion, and body temperature, determined by the use of a rectal thermometer (RS Components, Northants, UK), were measured daily. A glucose tolerance test was performed on day 3. Animals were fasted for 12 h, followed by oral administration of glucose (1 gkg^−1 in a volume of 100 μl by gavage). Blood samples were removed from the tail vein at 15, 30, 60 and 120 min and used for the measurement of glucose. Urinary glucose was measured by collecting 0.5 ml urine and testing glucose concentration using a Boots glucose monitor. After 8 days of treatment the animals were terminated by cervical dislocation, tissues were removed and rapidly frozen in liquid nitrogen, and maintained at −80° C. […] Animal studies were conducted under Home Office Licence according to the UKCCCR Guidelines for the care and use of laboratory animals.

[6] = test system: gastrocnemius muscle; assay: Glucose uptake ex vivo into isolated muscle of treated ob/ob mice; type: in vivo, mouse; settings: ob/ob mice treated 8 days; presence of insulin
[7] = test system: 3T3 L1 adipocytes; settings: cited from earlier work
[8] = oral ZAG + propanolol 40 mgkg^−1

| Compound | effect of propanolol on ZAG-induced glucose uptake into BAT [1] | effect of propanolol on ZAG-induced stimulation of glucose uptake ex vivo into epididymal, subcutaneous and visceral adipocytes [1] | murine ZAG in the serum of animals given ZAG and co-administered propanolol [2] | effect of propanolol on weight gain of mice administered PBS ([3]; PBS + propanolol) | effect of propanolol on ZAG-induced weight loss ([3]; oral ZAG 50 μg daily + propanolol 40 mg/kg po daily) | effect of propanolol on ZAG-induced weight loss ([3]; oral ZAG + propanolol 20 mgkg^−1) | effect of propanolol on ZAG induced increase in rectal temperature [3, 8] | effect of propanolol on ZAG induced reduction in urinary excretion of glucose [3, 8] | effect of propanolol on decrease in serum glucose after ZAG administration [4] | effect of propanolol on decrease in serum insulin levels after ZAG administration [4] | effect of propanolol on ZAG-induced increase in insulin sensitivity [5] | effect of propanolol on ZAG-reduced peak blood glucose concentration / improvement in glucose disposal in glucose tolerance test [5] | effect of propanolol on ZAG-induced glucose uptake ex vivo into gastrocnemius muscle [6] | levels of ZAG mRNA [7] |
| --- | --- | --- | --- | --- | --- | --- | --- | --- | --- | --- | --- | --- | --- | --- |
| CC(C)NC[C@H](O)COc1cccc2ccccc12 (racemic) [propanolol] | attenuated | attenuated | no increase; also recorded: attenuated | no effect | blocked; also recorded: attenuated | did not prevent the weight loss | completely attenuated | completely attenuated | completely attenuated | completely attenuated | blocked; also recorded: attenuated | blocked; also recorded: attenuated | attenuated | – |
| C[C@H](Cc1ccc(OCC(=O)O)cc1)NC[C@H](O)c1cccc(Cl)c1 [BRL37344] | – | – | – | – | – | – | – | – | – | – | – | – | – | increase |
